Laboratory results published in ChEMBL document CHEMBL1201862, “PubChem BioAssay data set” (2004).
Activity calls are given as the source filed them.

Experiments:
[1] = biological target: T1, Nuclear receptor subfamily 0 group B member 1 (Homo sapiens, UniProt P51843); format: functional, cell-based;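 further: HEK293T cells transfected with SF-1 and DAX-1 plus StAR promoter luciferase reporter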
T1 sequence (P51843 whole entry): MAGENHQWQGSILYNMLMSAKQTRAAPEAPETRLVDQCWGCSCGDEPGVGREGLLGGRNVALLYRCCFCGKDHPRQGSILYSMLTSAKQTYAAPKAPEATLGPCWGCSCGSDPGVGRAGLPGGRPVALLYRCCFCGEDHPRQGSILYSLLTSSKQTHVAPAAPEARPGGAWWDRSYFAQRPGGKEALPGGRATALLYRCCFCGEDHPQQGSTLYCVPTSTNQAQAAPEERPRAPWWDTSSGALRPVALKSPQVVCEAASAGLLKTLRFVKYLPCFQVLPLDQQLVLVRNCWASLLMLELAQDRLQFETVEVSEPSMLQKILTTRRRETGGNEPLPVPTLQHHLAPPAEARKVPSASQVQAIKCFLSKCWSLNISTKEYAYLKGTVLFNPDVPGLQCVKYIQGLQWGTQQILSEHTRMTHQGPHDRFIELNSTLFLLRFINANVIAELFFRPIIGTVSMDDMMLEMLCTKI

cells [2] = format: functional, cell-based
[3] = potency of ADAM10 substrate cleavage blockers – biochemical, QFRET, dose response (AID 743254);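 further: ADAM10 enzyme with the DM2 quenched FRET peptide as substrate; EDANS fluorescence gain as the protease cuts the substrate; inhibitor potency against ADAM10 proteolytic activity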
[4] = biological target: Disintegrin and metalloproteinase domain-containing protein 17 (Homo sapiens, UniProt P78536); assay: inhibition of ADAM17 substrate cleavage – biochemical, quenched FRET substrate, counter-screen for ADAM10 exosite inhibitor project, dose response (AID 743253)
[5] = biological target: Fructose-bisphosphate aldolase (Mycobacterium tuberculosis, UniProt P9WQA3); assay: Fluorescence-based biochemical high throughput dose response assay for inhibitors of the fructose-bisphosphate aldolase (FBA) of M. tuberculosis.; format: functional
Chain of Fructose-bisphosphate aldolase (P9WQA3 whole entry): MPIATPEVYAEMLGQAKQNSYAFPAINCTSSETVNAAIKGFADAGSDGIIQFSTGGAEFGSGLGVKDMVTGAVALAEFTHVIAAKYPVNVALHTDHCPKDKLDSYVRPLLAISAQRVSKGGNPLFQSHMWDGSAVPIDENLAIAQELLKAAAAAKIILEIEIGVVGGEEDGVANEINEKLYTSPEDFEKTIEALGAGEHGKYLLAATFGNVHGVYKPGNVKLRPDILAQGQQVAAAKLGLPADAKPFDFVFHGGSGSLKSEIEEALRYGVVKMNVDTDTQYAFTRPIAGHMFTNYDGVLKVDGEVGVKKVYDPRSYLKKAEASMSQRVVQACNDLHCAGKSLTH

Vero = assay: viability loss in Vero cells – cell-based, plate reader, cherry-pick samples, cytotoxicity control, dose response (AID 687020); format: functional; settings: Chlorocebus sabaeus
[6] = NIH-3T3 fibroblast cytotoxicity, dose response, cytotoxicity control, cell-based, fluorescence, Alamar Blue, secondary assay (AID 2327); format: functional;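 further: NIH-3T3 mouse fibroblasts cultured with fluconazole at 8 µg/mL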
Paired box protein Pax-8 = Paired box protein Pax-8 (Homo sapiens, UniProt Q06710); assay: PAX8 transcriptional activity inhibition in RMG-I – RMG-I cells, luciferase, cherry-pick, dose response (AID 687027); format: functional, cell-based;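 further: luciferase reporter driven by Pax8 target thyroperoxidase promoter measured by SteadyGlo luminescence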
[7] = Trypanosoma cruzi growth suppression in host cells – NIH3T3 host cells, beta-gal luminescence, confirmation (AID 2044); format: functional, cell-based;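 further: intracellular parasites grown in NIH/3T3 mouse fibroblasts as host cells; luminescent beta-galactosidase reporter signal from transgenic T. cruzi replicating inside host cells; inhibitors lower the luminescence signal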
[8] = NIH3T3 cell viability loss – ATP luminescence, mouse fibroblasts, counter-screen, dose response (AID 2010); format: functional, cell-based;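 further: cells exposed to compound for about 90 hours before reading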
[9] = biological target: Eukaryotic translation initiation factor 4E (Mus musculus, UniProt P63073); assay: blockers of eIF4G binding by eIF4E – biochemical, TR-FRET, dose response (AID 855); format: functional;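 further: potency for disrupting eIF4E binding to eIF4GI seen as loss of FRET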
Chain of Eukaryotic translation initiation factor 4E (P63073 whole entry): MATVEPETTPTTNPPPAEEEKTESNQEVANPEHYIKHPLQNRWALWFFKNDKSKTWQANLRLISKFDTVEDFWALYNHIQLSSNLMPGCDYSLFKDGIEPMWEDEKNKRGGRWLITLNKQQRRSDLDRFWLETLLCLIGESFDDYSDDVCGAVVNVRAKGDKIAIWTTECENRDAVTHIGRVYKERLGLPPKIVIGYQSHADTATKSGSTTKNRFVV

[10] = fluconazole-exposed Candida albicans growth modulators – fluorescence, retest, confirmation (AID 2467); format: functional, cell-based
INS1 = assay: INS-1E survival protection against cytokine death – cell-based, luminescence, retest, dose response (AID 449756); format: functional; settings: Rattus norvegicus;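 further: cell death triggered by IL-1 beta plus TNF-alpha plus IFN-gamma mixture; protective hits raise ATP signal compared with cytokine alone wells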
[11] = biological target: Histone-lysine N-methyltransferase NSD2 (Homo sapiens, UniProt O96028); format: biochemical
[12] = biological target: Induced myeloid leukemia cell differentiation protein Mcl-1 (Homo sapiens, UniProt Q07820); format: functional
Chain of Induced myeloid leukemia cell differentiation protein Mcl-1 (Q07820 whole entry): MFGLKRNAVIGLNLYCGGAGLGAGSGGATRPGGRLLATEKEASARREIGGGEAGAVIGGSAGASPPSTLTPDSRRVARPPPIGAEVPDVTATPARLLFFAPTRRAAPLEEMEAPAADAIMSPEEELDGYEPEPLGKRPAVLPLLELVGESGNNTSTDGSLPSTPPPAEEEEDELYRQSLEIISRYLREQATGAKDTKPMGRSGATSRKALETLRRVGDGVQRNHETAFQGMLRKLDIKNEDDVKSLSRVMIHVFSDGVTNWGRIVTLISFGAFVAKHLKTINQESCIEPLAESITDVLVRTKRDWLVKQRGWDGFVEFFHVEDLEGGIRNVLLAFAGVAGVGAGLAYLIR

[13] = biological target: T2, Oxysterols receptor LXR-beta (Homo sapiens, UniProt P55055); format: functional, cell-based
T2 sequence (P55055 whole entry): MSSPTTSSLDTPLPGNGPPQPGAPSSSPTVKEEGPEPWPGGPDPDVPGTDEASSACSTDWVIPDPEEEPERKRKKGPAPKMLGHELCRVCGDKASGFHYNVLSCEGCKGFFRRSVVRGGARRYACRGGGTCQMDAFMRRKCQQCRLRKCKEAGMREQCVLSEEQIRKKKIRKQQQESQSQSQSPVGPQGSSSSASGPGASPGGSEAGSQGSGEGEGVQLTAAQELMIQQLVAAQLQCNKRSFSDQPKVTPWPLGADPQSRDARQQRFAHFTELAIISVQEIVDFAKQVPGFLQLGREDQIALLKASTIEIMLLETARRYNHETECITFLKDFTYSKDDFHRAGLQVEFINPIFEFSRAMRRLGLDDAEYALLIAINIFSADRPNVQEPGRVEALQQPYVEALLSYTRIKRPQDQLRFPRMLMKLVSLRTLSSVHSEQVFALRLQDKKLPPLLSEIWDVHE

Caspase-7 = Caspase-7 (Homo sapiens, UniProt P55210); assay: caspase-7 enzyme inhibition, selectivity check – biochemical, DEVD-R110 fluorescence, cherry-pick, selectivity assay for caspase-6 inhibitor project, dose response (AID 743295); format: functional
Chain of Caspase-7 (P55210 24-198 limits assumed): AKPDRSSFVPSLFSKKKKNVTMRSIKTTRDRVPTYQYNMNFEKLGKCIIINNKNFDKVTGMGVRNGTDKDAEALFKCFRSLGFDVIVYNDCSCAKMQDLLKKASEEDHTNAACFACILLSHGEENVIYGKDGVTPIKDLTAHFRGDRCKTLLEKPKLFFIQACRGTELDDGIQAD
Chain of Caspase-7 (P55210 207-303 limits assumed): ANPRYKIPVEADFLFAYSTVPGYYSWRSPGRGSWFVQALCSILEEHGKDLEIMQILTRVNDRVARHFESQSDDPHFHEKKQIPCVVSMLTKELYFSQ

[14] = biological target: T3, Low molecular weight phosphotyrosine protein phosphatase (Homo sapiens, UniProt P24666); format: functional; settings: read-out: IC50_Mean;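 further: Dose-response confirmation assay measuring inhibition of LMPTP enzyme activity by fluorescence intensity read-out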
T3 sequence (P24666 whole entry): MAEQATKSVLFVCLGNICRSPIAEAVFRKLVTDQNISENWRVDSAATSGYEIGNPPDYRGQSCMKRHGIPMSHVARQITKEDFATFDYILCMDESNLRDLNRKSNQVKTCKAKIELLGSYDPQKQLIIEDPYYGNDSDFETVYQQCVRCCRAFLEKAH

Caspase-6 = biological target: T4, Caspase-6 (Homo sapiens, UniProt P55212); assay: inhibition of CASP6 peptide cleavage – biochemical, VEID-R110 fluorescence, cherry-pick, dose response (AID 720632)
T4 sequence (P55212 whole entry): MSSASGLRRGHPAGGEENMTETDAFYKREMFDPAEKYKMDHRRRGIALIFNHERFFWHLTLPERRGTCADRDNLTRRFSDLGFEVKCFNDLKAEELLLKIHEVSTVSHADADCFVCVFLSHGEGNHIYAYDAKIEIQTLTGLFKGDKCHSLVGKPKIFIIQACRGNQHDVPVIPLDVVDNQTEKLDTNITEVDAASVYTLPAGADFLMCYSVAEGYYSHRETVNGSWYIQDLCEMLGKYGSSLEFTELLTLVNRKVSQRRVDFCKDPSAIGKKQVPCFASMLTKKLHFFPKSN

Beta-lactamase [15] = biological target: T5, Beta-lactamase (Pseudomonas aeruginosa, UniProt Q79MP6); assay: […] counterscreen for selective VIM-2 inhibitors: dose response biochemical high throughput screening assay to identify inhibitors of IMP-1 metallo-beta-lactamase.
T5 sequence (Q79MP6 whole entry): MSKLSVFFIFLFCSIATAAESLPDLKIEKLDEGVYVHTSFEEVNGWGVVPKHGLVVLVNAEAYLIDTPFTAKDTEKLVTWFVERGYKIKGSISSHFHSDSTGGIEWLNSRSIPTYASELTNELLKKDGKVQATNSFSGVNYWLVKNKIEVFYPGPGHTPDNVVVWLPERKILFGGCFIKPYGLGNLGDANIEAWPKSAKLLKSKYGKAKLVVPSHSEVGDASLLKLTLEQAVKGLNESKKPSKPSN

Beta-lactamase [16] = biological target: T5, Beta-lactamase; assay: inhibition of IMP-1 beta-lactamase activity – biochemical, epi-absorbance, selectivity assay for VIM-2 inhibitor project, dose response (AID 1920)
Beta-lactamase [17] = biological target: Beta-lactamase (Salmonella choleraesuis (strain SC-B67), UniProt Q5J463); assay: Epi-absorbance-based counterscreen for selective VIM-2 inhibitors: dose response biochemical high throughput screening assay to identify inhibitors of TEM-1 serine-beta-lactamase.
Chain of Beta-lactamase (Salmonella choleraesuis (strain SC-B67), UniProt Q5J463) (Q5J463 whole entry): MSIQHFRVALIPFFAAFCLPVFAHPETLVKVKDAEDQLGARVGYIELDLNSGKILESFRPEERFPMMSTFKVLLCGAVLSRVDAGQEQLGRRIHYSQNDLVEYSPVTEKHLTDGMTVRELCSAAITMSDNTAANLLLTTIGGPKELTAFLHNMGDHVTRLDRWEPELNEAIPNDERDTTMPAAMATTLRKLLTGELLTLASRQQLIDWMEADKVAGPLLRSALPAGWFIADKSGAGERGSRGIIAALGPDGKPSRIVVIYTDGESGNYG

[18] = blockers of bursicon-stimulated LGR2 cAMP reporter – cell-based, HEK293, CRE-luciferase reporter, cherry pick, set 2, dose response (AID 743343); format: functional;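 further: transfected cells were stimulated with diluted bursicon conditioned medium after compound addition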
[19] = general mammalian cell viability loss – activator set, cherry-pick, cytotoxicity control for miR-122 modulator project, dose response (AID 720690); format: functional, cell-based;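 further: HEK293T human cells scored for general mammalian cytotoxicity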
[20] = A549 cell cytotoxicity, dose response, cytotoxicity control, plate reader, cherry-pick, antagonist series (AID 743412); format: functional, cell-based
[21] = toxicity toward HepG2 liver cells – cell-based, plate reader, cherry-pick, antagonist series, cytotoxicity control, dose response (AID 743416); format: functional
[22] = viability loss in HEK293 cells – cell-based, plate reader, cherry-picked samples, cytotoxicity control, dose response (AID 743446); format: functional
[23] = general mammalian cell viability loss – inhibitor set, cherry-pick, set 2, cytotoxicity control for miR-122 modulator project, dose response (AID 720697); format: functional, cell-based
[24] = activation of miR-122 Renilla sensor silencing – cell-based, Huh7 psiCHECK-miR122, Renilla luciferase, cherry-picked, dose response (AID 651956); format: functional;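 further: huh7 hepatoma cells stably carrying a psiCHECK-2 miR-122 sensor plasmid; renilla luciferase signal reporting endogenous miR-122 activity after 48 h compound exposure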
[25] = blockade of melanocortin 4 receptor signaling – cell-based, plate reader, cherry pick, counter-screen for LGR2 antagonist project, dose response (AID 743444); format: functional;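 further: transfected HEK 293 cells stimulated with alpha-MSH peptide; potency of inhibitors of the alpha-MSH evoked signal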
[26] = biological target: DNA repair and recombination protein RAD54-like (Homo sapiens, UniProt Q92698); assay: RAD54 Holliday junction migration blockers – biochemical, fluorescence, cherry-picked samples, dose series, confirmation (AID 651657); format: functional
Chain of DNA repair and recombination protein RAD54-like (Q92698 whole entry): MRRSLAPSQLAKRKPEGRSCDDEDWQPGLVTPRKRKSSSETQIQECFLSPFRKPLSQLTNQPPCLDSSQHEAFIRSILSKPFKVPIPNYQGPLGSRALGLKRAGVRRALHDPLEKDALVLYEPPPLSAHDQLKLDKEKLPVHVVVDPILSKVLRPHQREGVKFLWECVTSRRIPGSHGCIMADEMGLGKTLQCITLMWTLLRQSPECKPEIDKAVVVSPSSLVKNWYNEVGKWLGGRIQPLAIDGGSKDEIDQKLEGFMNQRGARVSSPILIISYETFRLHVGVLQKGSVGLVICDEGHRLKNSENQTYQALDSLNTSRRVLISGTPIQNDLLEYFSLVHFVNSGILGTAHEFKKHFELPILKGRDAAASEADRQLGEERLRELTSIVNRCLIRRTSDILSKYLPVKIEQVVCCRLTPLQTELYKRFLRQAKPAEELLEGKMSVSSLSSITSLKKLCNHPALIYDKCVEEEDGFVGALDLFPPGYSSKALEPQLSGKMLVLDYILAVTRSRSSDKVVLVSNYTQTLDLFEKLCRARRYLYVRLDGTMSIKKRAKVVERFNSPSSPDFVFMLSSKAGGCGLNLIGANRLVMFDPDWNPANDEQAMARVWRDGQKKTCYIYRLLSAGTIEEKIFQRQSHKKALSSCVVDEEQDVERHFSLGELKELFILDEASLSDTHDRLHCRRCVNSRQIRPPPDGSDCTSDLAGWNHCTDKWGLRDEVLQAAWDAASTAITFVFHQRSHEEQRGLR

[27] = viability loss in THP-1 monocytes – THP-1 cells, cytotoxicity control for Vif-APOBEC3G degradation inhibitor project, dose response (AID 1117359); format: functional; settings: THP-1
[28] = biological target: T6, DNA repair protein RAD52 homolog (Homo sapiens, UniProt P43351); format: functional, biochemical
T6 sequence (P43351 whole entry): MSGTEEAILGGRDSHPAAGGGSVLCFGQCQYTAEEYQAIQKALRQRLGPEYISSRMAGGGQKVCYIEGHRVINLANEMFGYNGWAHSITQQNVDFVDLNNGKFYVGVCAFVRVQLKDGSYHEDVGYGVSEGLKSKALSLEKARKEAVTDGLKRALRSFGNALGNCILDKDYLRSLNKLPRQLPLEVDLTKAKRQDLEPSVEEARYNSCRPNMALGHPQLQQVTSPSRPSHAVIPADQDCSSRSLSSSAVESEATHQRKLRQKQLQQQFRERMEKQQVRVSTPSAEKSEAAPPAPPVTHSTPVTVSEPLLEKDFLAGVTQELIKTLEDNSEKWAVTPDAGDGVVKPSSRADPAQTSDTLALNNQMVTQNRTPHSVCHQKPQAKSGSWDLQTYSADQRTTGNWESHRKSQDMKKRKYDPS

cells [29] = assay: cells
[30] = biological target: T2, Oxysterols receptor LXR-beta; format: functional, cell-based; remark: listed apart in the source
Fatty acid synthase [31] = biological target: T7, Fatty acid synthase (Homo sapiens, UniProt P49327); assay: inhibition of human FAS-TE enzyme activity – biochemical, endpoint fluorescence intensity, uHTS hits, dose response (AID 624327); format: functional;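 further: fluorescence from hydrolysis of an O-methyl fluorescein acyl ester substrate by the enzyme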
T7 sequence (P49327 whole entry): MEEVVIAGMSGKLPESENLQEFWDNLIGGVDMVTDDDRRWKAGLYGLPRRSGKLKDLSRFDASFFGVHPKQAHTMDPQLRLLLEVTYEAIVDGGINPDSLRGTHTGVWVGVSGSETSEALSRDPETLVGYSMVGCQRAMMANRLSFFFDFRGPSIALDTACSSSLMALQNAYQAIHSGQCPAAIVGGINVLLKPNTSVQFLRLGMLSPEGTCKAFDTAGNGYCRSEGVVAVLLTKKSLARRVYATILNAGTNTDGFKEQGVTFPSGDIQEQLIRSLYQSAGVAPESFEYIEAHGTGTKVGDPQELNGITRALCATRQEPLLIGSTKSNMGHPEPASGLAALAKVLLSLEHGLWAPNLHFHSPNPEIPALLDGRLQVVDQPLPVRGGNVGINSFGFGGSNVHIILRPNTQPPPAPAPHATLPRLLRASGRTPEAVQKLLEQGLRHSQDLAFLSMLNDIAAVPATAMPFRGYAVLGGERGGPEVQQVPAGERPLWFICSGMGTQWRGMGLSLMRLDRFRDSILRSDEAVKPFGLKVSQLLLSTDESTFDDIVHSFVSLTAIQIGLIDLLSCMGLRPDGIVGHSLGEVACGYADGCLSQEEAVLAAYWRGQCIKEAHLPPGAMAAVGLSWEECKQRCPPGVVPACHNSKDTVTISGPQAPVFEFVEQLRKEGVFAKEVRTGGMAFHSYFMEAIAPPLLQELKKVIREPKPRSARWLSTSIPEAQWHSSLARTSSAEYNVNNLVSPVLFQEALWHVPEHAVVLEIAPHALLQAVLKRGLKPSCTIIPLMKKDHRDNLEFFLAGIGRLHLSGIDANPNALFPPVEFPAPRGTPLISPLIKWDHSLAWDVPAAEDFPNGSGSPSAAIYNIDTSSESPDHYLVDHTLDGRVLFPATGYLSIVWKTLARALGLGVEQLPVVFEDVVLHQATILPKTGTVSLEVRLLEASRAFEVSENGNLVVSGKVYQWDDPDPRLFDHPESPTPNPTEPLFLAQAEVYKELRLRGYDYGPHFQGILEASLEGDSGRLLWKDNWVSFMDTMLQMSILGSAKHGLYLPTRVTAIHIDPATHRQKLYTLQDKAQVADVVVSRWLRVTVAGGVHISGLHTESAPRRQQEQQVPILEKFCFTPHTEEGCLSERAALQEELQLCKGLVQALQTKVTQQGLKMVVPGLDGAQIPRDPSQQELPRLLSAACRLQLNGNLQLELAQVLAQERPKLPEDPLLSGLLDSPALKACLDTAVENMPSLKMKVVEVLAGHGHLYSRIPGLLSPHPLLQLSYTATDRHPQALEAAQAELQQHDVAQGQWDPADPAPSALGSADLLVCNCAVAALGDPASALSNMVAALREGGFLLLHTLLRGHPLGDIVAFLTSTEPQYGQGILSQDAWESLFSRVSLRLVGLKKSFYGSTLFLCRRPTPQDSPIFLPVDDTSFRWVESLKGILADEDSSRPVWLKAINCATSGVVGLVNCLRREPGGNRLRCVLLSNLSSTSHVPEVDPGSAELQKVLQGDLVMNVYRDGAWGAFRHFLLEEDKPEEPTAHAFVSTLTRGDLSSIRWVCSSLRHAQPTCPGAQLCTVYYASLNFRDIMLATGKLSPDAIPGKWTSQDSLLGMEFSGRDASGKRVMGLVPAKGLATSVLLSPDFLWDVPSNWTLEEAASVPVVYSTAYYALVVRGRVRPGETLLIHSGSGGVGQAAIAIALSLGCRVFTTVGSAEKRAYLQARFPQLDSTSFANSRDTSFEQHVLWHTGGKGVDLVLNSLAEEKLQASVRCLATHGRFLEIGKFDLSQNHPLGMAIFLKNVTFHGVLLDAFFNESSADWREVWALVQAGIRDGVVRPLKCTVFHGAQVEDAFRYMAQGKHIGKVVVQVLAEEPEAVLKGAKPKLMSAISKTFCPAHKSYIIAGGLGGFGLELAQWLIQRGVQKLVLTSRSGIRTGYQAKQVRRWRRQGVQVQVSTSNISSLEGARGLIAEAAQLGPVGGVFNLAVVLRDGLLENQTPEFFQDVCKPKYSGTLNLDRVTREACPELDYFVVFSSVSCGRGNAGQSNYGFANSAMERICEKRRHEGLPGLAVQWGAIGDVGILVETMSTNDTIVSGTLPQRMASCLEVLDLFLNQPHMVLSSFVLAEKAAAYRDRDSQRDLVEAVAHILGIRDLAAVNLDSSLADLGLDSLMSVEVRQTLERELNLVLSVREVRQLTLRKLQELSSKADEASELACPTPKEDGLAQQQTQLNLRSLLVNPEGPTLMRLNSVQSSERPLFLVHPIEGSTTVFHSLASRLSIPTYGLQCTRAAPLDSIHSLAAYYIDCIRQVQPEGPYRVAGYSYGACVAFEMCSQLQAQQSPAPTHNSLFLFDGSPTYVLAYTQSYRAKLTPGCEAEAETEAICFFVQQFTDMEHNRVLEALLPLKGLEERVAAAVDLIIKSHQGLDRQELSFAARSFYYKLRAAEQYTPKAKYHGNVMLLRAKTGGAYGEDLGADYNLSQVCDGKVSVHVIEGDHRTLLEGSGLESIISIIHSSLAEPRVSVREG

[32] = Luminescence Cell-Based Dose Retest to Confirm Inhibitors of Cancer Stem Cells. [Related pubchem assays (depositor defined):AID2717, AID2721]; format: functional; settings: Homo sapiens
Fatty acid synthase [33] = biological target: T7, Fatty acid synthase; assay: inhibition of human FAS-TE enzyme activity – biochemical, kinetic fluorescence intensity, dose response (AID 624326); format: functional;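 further: rate of fluorescence rise from hydrolysis of a fluorogenic O-methyl fluorescein ester substrate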

Structure (SMILES): COc1cc2c(c(OC)c1OC)-c1ccc(OC)c(=O)cc1C(NC(=O)c1ccccc1)CC2 (stereo not drawn)
- IC50 [1]: > 67.5 µM (inactive)
- IC50 (cells [2]): > 67.5 µM (inactive)

Structure (SMILES): CCCCCCCCNS(=O)(=O)/C=C/c1ccccc1CNC(=O)OC(C)(C)C
- IC50 [3]: > 7.73 µM (active)
- IC50 [4]: > 69.6 µM (inactive)

Structure (SMILES): COCCn1c(SCC(=O)N2CCCCC2)nc2c(c1=O)SCC2
- IC50 [5]: > 9.99 µM (inactive)

Structure (SMILES): Cc1oc(C)c(C(=O)Nc2ccc(CC(=O)O)cc2)c1C(=O)Nc1ccc(CC(=O)O)cc1
- IC50 [5]: > 9.99 µM (inactive)

Structure (SMILES): COc1ccccc1CNC(=O)C(=O)Nc1ccc(C(=O)N2CCC(C)CC2)cc1
- AC50 (Vero): 25.8 µM (active)

Structure (SMILES): CN1c2ccccc2N(C)C1(C)c1ccccc1
- EC50 [6]: > 150 µM (inactive)
- AC50 (Paired box protein Pax-8): 9.4 µM (active)
- EC50 [7]: 0.278 µM (active)
- EC50 [8]: > 60 µM (not active)
- IC50 [9]: > 64 µM (inactive)
- EC50 [10]: > 38 µM (not active)
- AC50 (INS1): 0.283 µM (active)
- AC50 [11]: > 20 µM (inactive)
- IC50 [12]: 4.95 µM (active)

Structure (SMILES): c1ccc(CSc2ccc(-c3cccs3)nn2)cc1
- EC50 [13]: > 67.5 µM (inactive)

Structure (SMILES): COc1cccc(-c2nc3ccccc3s2)c1
- EC50 [13]: > 67.5 µM (inactive)

Structure (SMILES): CC(C)Oc1ccccc1OC1(C)CCN(Cc2ccc(OC(F)(F)F)cc2)C1 (stereo not drawn)
- AC50 (Vero): 27.4 µM (active)

Structure (SMILES): CCOC(=O)c1sc2nc(OCCN3CCOCC3)cc(C)c2c1N
- AC50 (Caspase-7): 45.2 µM (active)
- IC50 [14]: 61.1 µM (inactive)
- AC50 (Caspase-6): 2.18 µM (active)

Structure (SMILES): O=c1c2ccccc2cnn1Cc1nnc(S)n1C1CC2CCC1C2 (stereo not drawn)
- IC50 (Beta-lactamase [15]): > 59.6 µM (inactive)
- IC50 (Beta-lactamase [16]): > 59.6 µM (inactive)
- IC50 (Beta-lactamase [17]): > 59.6 µM (inactive)

Structure (SMILES): C[C@H]1CN([C@@H](C)CO)S(=O)(=O)c2ccc(C#CC(C)(C)O)cc2O[C@@H]1CN(C)Cc1ccc(-c2ccccc2)cc1
- AC50 [18]: 29.6 µM (active)
- AC50 [19]: 12.3 µM (active)
- AC50 [20]: 0.778 µM (active)
- AC50 [21]: 0.759 µM (active)
- AC50 [22]: 1.95 µM (active)
- AC50 [23]: 10.7 µM (active)
- AC50 [24]: 7.8 µM (active)
- AC50 [25]: 20.2 µM (active)

Structure (SMILES): CCOCCCN=C(S)Nc1ccc2nc(N3CCN(CC)CC3)cc(C)c2c1
- AC50 [26]: 100 µM (inactive)
- CC50 [27]: > 40 µM (active)
- AC50 [28]: 33 µM (active)

Structure (SMILES): O=C(c1ccc2nc(Cc3ccccc3F)oc2c1)N1CC[C@H](O)C1
- IC50 [1]: > 67.6 µM (inactive)
- IC50 (cells [2]): > 67.6 µM (inactive)

Structure (SMILES): c1ccc(-c2noc(-c3cccc4ccccc34)n2)nc1
- EC50 (cells [29]): > 67.5 µM (inactive)
- EC50 [30]: > 67.5 µM (inactive)

Structure (SMILES): CN1C(=O)c2cc(NC(=O)Nc3cccc(Cl)c3)ccc2OC[C@@H]2O[C@H](CC(=O)NCCc3ccncc3)CC[C@H]21
- AC50 [24]: 16.1 µM (active)

Structure (SMILES): CN(C)CCNc1nc2sc3c(c2c(=O)n1CCc1ccccc1)CCCCC3
- AC50 [19]: 14.7 µM (active)
- IC50 (Fatty acid synthase [31]): 18.8 µM (active)
- AC50 [23]: 7.83 µM (active)
- EC50 [7]: 0.125 µM (active)
- EC50 [8]: 30.9 µM (active)
- AC50 [32]: 6.6 µM (active)
- IC50 (Fatty acid synthase [33]): 19.3 µM (active)
